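Briefly, cells in 96-well plates were exposed to five compound concentrations for 48 h, and endpoints were estimated by linear interpolation. GI50 is the concentration that inhibits growth by half.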 Activity calls are given as the source filed them. Cut-off read from the data, not from the text of the source: active = GI50 up to about 1.1 µM and inactive = higher.
Columns and labels:
Experiment in all cases: NCI anticancer screen, dose series, 48 h
NCI-H226 = test system: NCI-H226
ACHN = test system: ACHN
TK-10 = test system: TK-10
DU-145 = test system: DU-145
M14 = test system: M14
UACC-62 = test system: UACC-62
NCI-H522 = test system: NCI-H522
U-251 = test system: U-251
UO-31 = test system: UO-31
NCI-H23 = test system: NCI-H23
HOP-62 = test system: HOP-62
HT-29 = test system: HT-29
SN12C = test system: SN12C
HCT-116 = test system: HCT-116
PC-3 = test system: PC-3
HCT-15 = test system: HCT-15
UACC-257 = test system: UACC-257
SF-295 = test system: SF-295
RXF 393 = test system: RXF 393
Malme-3M = test system: Malme-3M

Structure (SMILES) | GI50 (NCI-H226) | GI50 (ACHN) | GI50 (TK-10) | GI50 (DU-145) | GI50 (M14) | GI50 (UACC-62) | GI50 (NCI-H522) | GI50 (U-251) | GI50 (UO-31) | GI50 (NCI-H23) | GI50 (HOP-62) | GI50 (HT-29) | GI50 (SN12C) | GI50 (HCT-116) | GI50 (PC-3) | GI50 (HCT-15) | GI50 (UACC-257) | GI50 (SF-295) | GI50 (RXF 393) | GI50 (Malme-3M)
O=C(NNC(=S)Nc1ccc(Cl)cc1)c1cc(-c2ccccc2)nc2ccccc12 | 11.5 µM (inactive) | 10 µM (inactive) | 7.19 µM (inactive) | 4.23 µM (inactive) | 4.97 µM (inactive) | 2.9 µM (inactive) | 5.64 µM (inactive) | 3.51 µM (inactive) | 5.28 µM (inactive) | 4.94 µM (inactive) | 6.12 µM (inactive) | 8.73 µM (inactive) | 4.97 µM (inactive) | 3.06 µM (inactive) | 3.42 µM (inactive) | 3.43 µM | 5.55 µM (inactive) | 2.52 µM (inactive) | 7.93 µM (inactive) | 4.6 µM (inactive)
CC(C)=C/C=C1/CS(=O)(=O)C=C1C | > 100 µM (inactive) | > 100 µM (inactive) | > 100 µM (inactive) | > 100 µM (inactive) | > 100 µM (inactive) | > 100 µM (inactive) | > 100 µM (inactive) | > 100 µM (inactive) | > 100 µM (inactive) | > 100 µM (inactive) | > 100 µM (inactive) | > 100 µM (inactive) | > 100 µM (inactive) | > 100 µM (inactive) | > 100 µM (inactive) | 47.4 µM | > 100 µM (inactive) | > 100 µM (inactive) | > 100 µM (inactive) | > 100 µM (inactive)
O=C1NC(Cc2c[nH]c3ccccc23)C(=O)N2C(c3ccccc3)c3[nH]c4ccccc4c3C[C@@H]12 (stereo not given in full) | 35.6 µM (inactive) | 29.4 µM (inactive) | 26.9 µM (inactive) | 32.3 µM (inactive) | 21.6 µM (inactive) | 17.2 µM (inactive) | 18.1 µM (inactive) | 19.5 µM (inactive) | 23.5 µM (inactive) | 27.7 µM (inactive) | 17.2 µM (inactive) | 22.1 µM (inactive) | 16.4 µM (inactive) | 15.4 µM (inactive) | 18.7 µM (inactive) | 21.7 µM | 25.4 µM (inactive) | 15.3 µM (inactive) | 16 µM (inactive) | 15 µM (inactive)
Oc1ccc(Cl)cc1-c1nc(S)nc(-c2ccccc2)c1Cl | > 100 µM (inactive) | > 90.8 µM (inactive) | 49.1 µM (inactive) | > 70.6 µM (inactive) | > 100 µM (inactive) | > 10 µM (inactive) | > 31.6 µM (inactive) | 43.2 µM (inactive) | > 88.5 µM (inactive) | > 100 µM (inactive) | 31.1 µM (inactive) | > 31.6 µM (inactive) | > 100 µM (inactive) | > 96.4 µM (inactive) | > 100 µM (inactive) | > 100 µM | > 100 µM (inactive) | 28.6 µM (inactive) | 45 µM (inactive) | > 100 µM (inactive)

— ChEMBL document CHEMBL1201862, “PubChem BioAssay data set” (2004)
